In patent publication US10030016B2 (Sunesis Pharmaceuticals, Inc., priority 2009, dated 2018) one finds EC50 and IC50 data, which are given here for 11 molecules.

In experiment [1] the test system is phospho-akt (Thr308) in PC-3 cells. The experiment in a line: Inhibition of phospho-akt (Thr308) in PC-3 cells, MSD phospho-akt 308 ELISA kit. It is filed as cell-based. Particulars: Homo sapiens, 2 hours, no serum, read-out: EC50. The essentials:
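Serum-free 2 h compound exposure of overnight-seeded PC-3 cells, threefold dilution series; lysates analysed on blocked MSD plates (3% BSA) for Thr308-phosphorylated Akt, normalised between DMSO and 5 μM wortmannin wells.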
On the technique in general: ELISA stands for enzyme-linked immunosorbent assay.

A further experiment deals with PDK1 (Homo sapiens (Human), UniProt O15530). The experiment in a line: PDK1 kinase assay (coupled PDK1/AKT/FAM-crosstide assay, IMAP fluorescence polarization). It is filed as biochemical. The essentials:
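PDK1 activity is measured indirectly through activation of a PIFtide-fused AKT2 construct that phosphorylates FAM-crosstide (100 nM). The reaction uses 0.75 nM PDK1, 40 μM ATP, 30 min, 25° C, with IMAP polarization detection.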
For orientation: In fluorescence polarisation assays a small probe gives low polarisation when free and higher when bound to something large.

Setting [2] is: inhibition of P308 Akt in PC-3 cells using MSD.
The mark [3] stands for this setting: inhibition of P308 Akt in PC-3 cells, MSD.
The mark [4] stands for this setting: inhibition of phospo-PDK1 in vitro.

Structures can show the parent of a compound that is named as a salt. Where two headings read alike, the source gives them in different places. A value given as a limit tells only on which side of the number the result lay.

Sequence of PDK1 (O15530 51-359): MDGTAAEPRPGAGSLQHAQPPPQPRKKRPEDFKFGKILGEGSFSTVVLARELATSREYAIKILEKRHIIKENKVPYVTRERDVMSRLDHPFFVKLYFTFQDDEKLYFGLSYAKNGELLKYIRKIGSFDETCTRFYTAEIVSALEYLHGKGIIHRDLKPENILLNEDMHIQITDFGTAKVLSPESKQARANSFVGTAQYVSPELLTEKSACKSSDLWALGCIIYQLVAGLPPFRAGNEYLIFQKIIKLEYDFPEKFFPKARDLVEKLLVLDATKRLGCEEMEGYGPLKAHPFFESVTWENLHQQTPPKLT

Take `C[C@H](NC(=O)c1cc(C#N)cnc1NCc1ccc(-c2cnc(N)c(O[C@@H]3CCC[C@H]3N)n2)cc1)c1ccc(F)cc1` [Example 171, 2-{4-[5-Amino-6-((1R,2R)-2-amino-cyclopentyloxy)-pyrazin-2-yl]-benzylamino}-5-cyano-N-[(S)-1-(4-fluoro-phenyl)-ethyl]-nicotinamide]: the EC50 in experiment [1] (setting [2]) lay in the range of 1000 to 10000 nM. Further, at PDK1 (inhibition of PDK1 in vitro), the IC50 was under 100 nM.

With `C[C@H](NC(=O)c1cc(C(F)(F)F)cnc1NCc1ccc(-c2cnc3[nH]c(=O)[nH]c3c2)cc1)c1ccc(F)c(F)c1` [Example 362, (S)-N-(1-(3,4-difluorophenyl)ethyl)-2-(4-(2-oxo-2,3-dihydro-1H-imidazo[4,5-b]pyridin-6-yl)benzylamino)-5-(trifluoromethyl)nicotinamide], in experiment [1] (setting [2]), the EC50 is under 1000 nM. At PDK1 (inhibition of PDK1 in vitro), this molecule showed an IC50 of under 100 nM.

For the molecule `O=C(NCc1ccc(F)c(F)c1)c1cccnc1NCc1cc(-c2c[nH]c3ncc(-c4ccn[nH]4)cc23)ccn1` [Example 54, 2-((4-(5-(1H-pyrazol-5-yl)-1H-pyrrolo[2,3-b]pyridin-3-yl)pyridin-2-yl)methylamino)-N-(3,4-difluorobenzyl)nicotinamide], the concentration giving a half-maximal response (EC50) in experiment [1] (setting [2]) is under 1000 nM. This molecule displayed an IC50 against PDK1 (inhibition of PDK1 in vitro) of under 100 nM.

Take `Cc1ccc(F)cc1CNC(=O)c1cccnc1NCc1ccc(-c2ccc3ncnc(N)c3c2)s1` [Example 3.18, 2-({[5-(4-aminoquinazolin-6-yl)thiophen-2-yl]methyl}amino)-N-(5-fluoro-2-methylbenzyl) pyridine-3-carboxamide (TFA salt)]: in experiment [1] (setting [3]), the EC50 was over 10000 nM. This molecule also yielded an IC50 against PDK1 (setting [4]) of 100 to 1000 nM.

Turning to `CC(C)NC(=O)c1cccnc1NCc1cccc(-c2c[nH]c3ncccc23)c1` [Example 1.10, N-(propan-2-yl)-2-{[3-(1H-pyrrolo [2,3-b]pyridin-3-yl)benzyl]amino} pyridine-3-carboxamide], in experiment [1] (setting [3]), the EC50 lay in the range of 1000 to 10000 nM. Moreover, the IC50 at PDK1 (setting [4]) is over 5000 nM.

Turning to `C[C@H](NC(=O)c1cc(C#N)cnc1NCc1ccc(-c2cnc3c(c2)CCN3)cc1)c1ccc(F)cc1` [Example 139, (S)-5-cyano-2-(4-(3,4-dihydro-1H-pyrrolo [2,3-b]pyridin-5-yl)benzylamino)-N-(1-(4-fluorophenyl)ethyl) nicotinamide], in experiment [1] (setting [2]), the EC50 was under 1000 nM. The same molecule showed an IC50 on PDK1 (inhibition of PDK1 in vitro) of under 100 nM.

For `C[C@H](NC(=O)c1cc(C#N)cnc1NCc1ccc(-c2ccn3ncnc(N)c23)cc1)c1ccc(F)cc1` [Example 174, 2-[4-(4-Amino-pyrrolo[2,1-f][1,2,4]triazin-5-yl)-benzylamino]-5-cyano-N-[(S)-1-(4-fluoro-phenyl)-ethyl]-nicotinamide], the EC50 in experiment [1] (setting [2]) is under 1000 nM. Besides, the IC50 against PDK1 (inhibition of PDK1 in vitro) is under 100 nM.

Take `Nc1ncnc2ccc(-c3ccc(CNc4ncccc4C(=O)N4CCc5ccccc5C4)s3)cc12` [Example 3.34, 2-({[5-(4-aminoquinazolin-6-yl)thiophen-2-yl]methyl}amino)-pyridin-3-yl](3,4-dihydroiso-quinolin-2(1H)-yl)methanone (TFA salt)]: the EC50 in experiment [1] (setting [3]) was in the range of 1000 to 10000 nM. The half-inhibitory concentration (IC50) at PDK1 (setting [4]) was over 5000 nM.

Take `Nc1ncnc2ccc(-c3ccc(CNc4ncccc4C(=O)Nc4cc(F)c(F)c(F)c4)s3)cc12` [Example 3.40, 2-({[5-(4-aminoquinazolin-6-yl)thiophen-2-yl]methyl}amino)-N-(3,4,5-trifluorophenyl) pyridine-3-carboxamide (TFA salt)]: the EC50 in experiment [1] (setting [3]) fell in the range of 1000 to 10000 nM. Moreover, the IC50 against PDK1 (setting [4]) lay in the range of 100 to 1000 nM.

For `Nc1ncnc2ccc(-c3ccc(CNc4nccnc4C(=O)NCc4ccc(F)cc4)s3)cc12` [Example 3.68, 3-({[5-(4-aminoquinazolin-6-yl)thiophen-2-yl]methyl}amino)-N-(4-fluorobenzyl) pyrazine-2-carboxamide (TFA salt)], the EC50 in experiment [1] (setting [3]) is 1000 to 10000 nM. On PDK1 (setting [4]), this molecule displayed an IC50 of under 100 nM.

Consider `CC(C)c1ccc(NC(=O)c2cc(C(F)(F)F)cnc2NCc2ccc(-c3cnc4[nH]nc(N)c4c3)cc2)cc1` [Example 280, 2-(4-(3-amino-1H-pyrazolo [3,4-b]pyridin-5-yl)benzylamino)-N-(4-isopropylphenyl)-5-(trifluoromethyl)nicotinamide], for which the EC50 in experiment [1] (setting [2]) was 1000 to 10000 nM. On PDK1 (inhibition of PDK1 in vitro), this molecule came in with an IC50 of 100 to 1000 nM.

In general, EC50 refers to the concentration needed to bring the measured effect to its halfway point. What is called IC50 is the concentration at which inhibition is half-maximal. A low value points to higher potency.
